Laboratory results: the NIST ThermoML archive (doi:10.1016/j.fluid.2012.09.007)

Test: xn = mol fraction of the nth substance listed
Conditions: 101 kPa, Liquid, Vibrating tube method

CC(C)CC(C)(C)C [2,2,4-trimethylpentane] + CCC(C)(C)OC
x2 = 0
Conditions | mass density [kg/m3]
298.15 K | 687.68
308.15 K | 679.48
318.15 K | 671.34

CC(C)CC(C)(C)C [2,2,4-trimethylpentane] + c1ccccc1
Conditions | mass density [kg/m3]
298.15 K, x2 = 0 | 687.69
298.15 K, x2 = 0.06106 | 693.48
298.15 K, x2 = 0.1418 | 701.74
298.15 K, x2 = 0.2015 | 708.37
298.15 K, x2 = 0.2685 | 716.35
298.15 K, x2 = 0.3382 | 725.38
298.15 K, x2 = 0.399 | 733.9
298.15 K, x2 = 0.4639 | 743.77
298.15 K, x2 = 0.5179 | 752.66
298.15 K, x2 = 0.5986 | 767.18
298.15 K, x2 = 0.6562 | 778.61
298.15 K, x2 = 0.7257 | 793.77
298.15 K, x2 = 0.7993 | 811.66
298.15 K, x2 = 0.871 | 831.31
298.15 K, x2 = 0.9483 | 855.37
308.15 K, x2 = 0 | 679.5
308.15 K, x2 = 0.07837 | 686.91
308.15 K, x2 = 0.139 | 693.09
308.15 K, x2 = 0.2112 | 701.03
308.15 K, x2 = 0.2701 | 707.99
308.15 K, x2 = 0.3244 | 714.88
308.15 K, x2 = 0.3912 | 723.99
308.15 K, x2 = 0.4607 | 734.35
308.15 K, x2 = 0.5319 | 745.93
308.15 K, x2 = 0.6019 | 758.53
308.15 K, x2 = 0.6669 | 771.38
308.15 K, x2 = 0.7335 | 785.91
308.15 K, x2 = 0.7944 | 800.56
308.15 K, x2 = 0.8662 | 819.8
308.15 K, x2 = 0.9302 | 839.08
318.15 K, x2 = 0 | 671.34
318.15 K, x2 = 0.07013 | 677.83
318.15 K, x2 = 0.1336 | 684.16
318.15 K, x2 = 0.2025 | 691.56
318.15 K, x2 = 0.272 | 699.64
318.15 K, x2 = 0.3457 | 708.99
318.15 K, x2 = 0.4011 | 716.6
318.15 K, x2 = 0.466 | 726.21
318.15 K, x2 = 0.535 | 737.39
318.15 K, x2 = 0.5941 | 747.85
318.15 K, x2 = 0.6592 | 760.41
318.15 K, x2 = 0.7319 | 775.94
318.15 K, x2 = 0.7981 | 791.66
318.15 K, x2 = 0.8656 | 809.56
318.15 K, x2 = 0.9321 | 829.34

CCC(C)(C)OC [2-methoxy-2-methylbutane] + CC(C)CC(C)(C)C
Conditions | mass density [kg/m3]
298.15 K, x1 = 0.06668 | 691.73
298.15 K, x1 = 0.1334 | 695.93
298.15 K, x1 = 0.2065 | 700.7
298.15 K, x1 = 0.2712 | 705.05
298.15 K, x1 = 0.3376 | 709.68
298.15 K, x1 = 0.3977 | 713.99
298.15 K, x1 = 0.4666 | 719.11
298.15 K, x1 = 0.527 | 723.75
298.15 K, x1 = 0.5952 | 729.17
298.15 K, x1 = 0.6668 | 735.06
298.15 K, x1 = 0.7314 | 740.58
298.15 K, x1 = 0.7975 | 746.43
298.15 K, x1 = 0.8616 | 752.31
298.15 K, x1 = 0.9325 | 759.06
298.15 K, x1 = 1 | 765.77
308.15 K, x1 = 0.06672 | 683.48
308.15 K, x1 = 0.1383 | 687.9
308.15 K, x1 = 0.2056 | 692.2
308.15 K, x1 = 0.2684 | 696.36
308.15 K, x1 = 0.3406 | 701.28
308.15 K, x1 = 0.401 | 705.55
308.15 K, x1 = 0.4585 | 709.75
308.15 K, x1 = 0.5291 | 715.06
308.15 K, x1 = 0.5953 | 720.24
308.15 K, x1 = 0.6632 | 725.74
308.15 K, x1 = 0.7339 | 731.67
308.15 K, x1 = 0.7946 | 736.96
308.15 K, x1 = 0.8646 | 743.27
308.15 K, x1 = 0.9319 | 749.58
308.15 K, x1 = 1 | 756.19
318.15 K, x1 = 0.06682 | 675.24
318.15 K, x1 = 0.1368 | 679.49
318.15 K, x1 = 0.1974 | 683.27
318.15 K, x1 = 0.2673 | 687.79
318.15 K, x1 = 0.3375 | 692.5
318.15 K, x1 = 0.401 | 696.91
318.15 K, x1 = 0.4676 | 701.69
318.15 K, x1 = 0.5324 | 706.5
318.15 K, x1 = 0.5984 | 711.56
318.15 K, x1 = 0.6593 | 716.41
318.15 K, x1 = 0.7309 | 722.32
318.15 K, x1 = 0.7982 | 728.08
318.15 K, x1 = 0.8669 | 734.18
318.15 K, x1 = 0.932 | 740.18
318.15 K, x1 = 1 | 746.69

CCC(C)(C)OC [2-methoxy-2-methylbutane] + c1ccccc1
Conditions | mass density [kg/m3]
298.15 K, x2 = 0 | 765.79
298.15 K, x2 = 0.06414 | 770.46
298.15 K, x2 = 0.1353 | 775.9
298.15 K, x2 = 0.2019 | 781.23
298.15 K, x2 = 0.2693 | 786.88
298.15 K, x2 = 0.3352 | 792.67
298.15 K, x2 = 0.4021 | 798.87
298.15 K, x2 = 0.4653 | 805.02
298.15 K, x2 = 0.5342 | 812.08
298.15 K, x2 = 0.6022 | 819.46
298.15 K, x2 = 0.6671 | 826.93
298.15 K, x2 = 0.7367 | 835.44
298.15 K, x2 = 0.7973 | 843.32
298.15 K, x2 = 0.8665 | 852.89
298.15 K, x2 = 0.9336 | 862.89
308.15 K, x2 = 0 | 756.23
308.15 K, x2 = 0.06701 | 761.09
308.15 K, x2 = 0.1338 | 766.17
308.15 K, x2 = 0.2009 | 771.51
308.15 K, x2 = 0.2672 | 777.02
308.15 K, x2 = 0.3336 | 782.8
308.15 K, x2 = 0.4024 | 789.11
308.15 K, x2 = 0.4715 | 795.77
308.15 K, x2 = 0.5344 | 802.18
308.15 K, x2 = 0.6008 | 809.31
308.15 K, x2 = 0.6685 | 816.98
308.15 K, x2 = 0.7345 | 824.97
308.15 K, x2 = 0.7995 | 833.32
308.15 K, x2 = 0.8625 | 841.93
308.15 K, x2 = 0.9344 | 852.47
318.15 K, x2 = 0 | 746.71
318.15 K, x2 = 0.06757 | 751.58
318.15 K, x2 = 0.1346 | 756.63
318.15 K, x2 = 0.2014 | 761.91
318.15 K, x2 = 0.269 | 767.5
318.15 K, x2 = 0.3371 | 773.39
318.15 K, x2 = 0.4031 | 779.4
318.15 K, x2 = 0.4661 | 785.42
318.15 K, x2 = 0.5339 | 792.26
318.15 K, x2 = 0.6012 | 799.41
318.15 K, x2 = 0.6679 | 806.93
318.15 K, x2 = 0.7346 | 814.9
318.15 K, x2 = 0.7994 | 823.13
318.15 K, x2 = 0.8645 | 831.93
318.15 K, x2 = 0.9333 | 841.85

c1ccccc1 [benzene] + CC(C)CC(C)(C)C
x1 = 1
Conditions | mass density [kg/m3]
298.15 K | 873.52
308.15 K | 862.84
318.15 K | 852.18

c1ccccc1 [benzene] + CCC(C)(C)OC
x1 = 1
Conditions | mass density [kg/m3]
298.15 K | 873.53
308.15 K | 862.85
318.15 K | 852.18
